# *1 amine or outer side, *2 acyl side, *3 side chain or, on linkers, in order; H or OH if unused. Where a SMILES comes first, the peptide text is derived from it. The star is where a group is joined. NH(CH2)3(OCH2CH2)2O(CH2)3NH = C(CN[*:1])COCCOCCOCCCN[*:2]; Palmitoyl = CCCCCCCCCCCCCCCC(=O)*
# Legend:
# [1] = system: Neurospora crassa; type: cell-based
# Procedure: (§1) For this essay, diluted spores kept at −80° C. were used (fresh ones in the case of de Saprolegnia sp.), 1×10^4 spores/ml at the specific media for every fungi. 10 μg/ml of tetracycline were added to avoid bacterial action. […] of peptide solution plus […] of spore solution alongside the adequated media are added to a 96 wells microplaque. As a positive control a culture of the spores at the same concentration than the assay but without peptide. The MICs were defined as the lowest concentrations of peptides at which total inhibition of growth is observed and no change in optical density at 595 nm occurred between the measures obtained at t0 and tf.
# [2] = system: Saprolegnia sp; type: cell-based
# Procedure: as §1
# [3] = system: Fusarium oxysporum; type: cell-based
# Procedure: as §1
# [4] = in vitro; type: cell-based; details: human
# Procedure: As a safety test for the peptides of the present invention the hemolytic activity was determined by using human erythrocytes (RBCs).
# The assays were carried out in 96-well flat-bottom plates against a 0.25% RBC suspension as described elsewhere (Blondelle, S. E., L. R. Simpkins, E. Pérez-Payá, and R. A. Houghten. 1993. Influence of tryptophan residues on melitin's hemolytic activity. Biochim. Biophys. Acta 1202:331-336.).
# In brief, peptide mixtures were added to the RBC solution at concentrations that varied from 500 to 4 μg/mL in serial twofold dilutions. Following incubation at 37° C. for 1 hour, the plates were centrifuged at 2.800 rpm for 5 min. The supernatant was separated from the pellet, an its optical density at 414 nm was measured. The hemolytic dose to lyse 50% of RBCs (IC50) was calculated by using the sigmoidal curve-fitting software Graphpad.
# [5] = system: Enterobacter hydrophila; details: 21 h
# Procedure: (§2) Minimum inhibitory concentration (MIC) is the lowest concentration of an antimicrobial that will inhibit the growth occurred between time zero and […].
# (§3) The MIC of peptides of examples 1, 2 and 3 was determined using gram negative bacteria (Escherichia Coli, Vibrio angillarum, Vibrio ordalii, Enterobacter aerogenes, Aeromonas hydrophila, Vibrio parahemolyticus, Bacillus Oleronius and Salmonella tiphy) and gram positive bacteria (Bacillus megaterium, Micrococcus luteus, Staphylococcus aureus and Staphylococcus epidermidis).
# (§4) To initiate the exponential phase of bacterial growth prior to the assay, a sample of each bacteria type was allowed to grow overnight at 37° C. in Mueller-Hinton broth and incubated at 37° C. MRSA (Methicillin Resistant Staphylococcus aureus) was grown at 35° C. in cation-adjusted MH broth.
# (§5) A final concentration of 1×10^5 CFU/ml was used in all assays. The assays were carried out in 96-well flat-bottom plates. Bacterial suspension in 2× concentrated broth was added to the different peptides at concentrations that varied from 2.500 to 1 μ/mL in H2O in serial twofold dilutions (Time t0). The plates were then incubated for 21 h (Time tf) at 37° C. […] The concentration necessary to inhibit 50% bacterial growth (IC50) could be by using sigmoidal curve-fitting software.
# [6] = system: Salmonella tiphy; details: 1×10^5 CFU/ml, 21 h at 37° C., optical density at 620 nm
# Procedure: as §2, §3, §4, §5
# [7] = system: Bacillus oleronius; details: 21 h
# Procedure: as §2, §3, §4, §5
# [8] = system: Staphylococcus aureus; details: 21 h
# Procedure: as §2, §3, §4, §5
# [9] = system: Vibrio angillarum; details: 21 h
# Procedure: as §2, §3, §4, §5
# [10] = system: Micrococcus luteus; details: 21 h
# Procedure: as §2, §3, §4, §5
# [11] = system: Bacillus megaterium; details: 21 h
# Procedure: as §2, §3, §4, §5
# [12] = system: Staphylococcus epidermidis; details: 21 h
# Procedure: as §2, §3, §4, §5
# [13] = system: Vibro ordalii; details: 21 h
# Procedure: as §2, §3, §4, §5
# [14] = system: E. Coli; details: 21 h
# Procedure: as §2, §3, §4, §5
# [15] = system: LPS from E. Coli 055:B5; experiment: LPS-neutralizing activity, chromogenic Limulus Amebocyte Lysate (LAL) test; type: biochemical; details: LPS 100 pg/mL, 45 min at 37° C., read-out: LPS-neutralization activity IC50 ± SD
# Procedure: All solutions used in the LPS-neutralizing activity assay were tested to ensure they were endotoxin-free and material was sterilized by heating 3 h at 180° C. LPS from E. Coli 055:B5 and Polymyxin B were purchased from Sigma. LPS-neutralizing activity was measured using the chromogenic Limulus Amebocyte Lysate (LAL) test 40 following the manufacturer's instructions (Cambrex). LAL reagent contains a clottable protein that is activated in the presence of non-neutralized LPS and is an extremely sensitive indicator of the presence of endotoxin. When activated, this enzyme catalyses the release of p-nitroaniline (pNA) from the colorless chromogenic substrate Ac-Ile-Glu-Ala-Arg-pNA. The pNA released was measured photometrically at 405 nm in a Rosys Anthos 2010 microtiter plate reader (Tecnomara AG, Zurich, Switzerland). Peptides were incubated at a range of concentrations (200 to 0.001 μM) with LPS (100 pg/mL) in a 96-well microtiter for 45 min at 37° C. Polymyxin B (10 μg/mL) was used as positive control. LAL (12.5 μL) was added to start the reaction at 37° C. After 16 min, non-neutralized LPS was detected after a 10 min incubation with the chromogenic substrate (25 μ) Acetic acid (25% v/v final concentration) was added to stop the reaction and the absorbance was monitored at 405 nm in a Multiskan Ascent microtiter plate reader (ThermoLabsystems). IC50 (the concentration necessary to in vitro neutralize 50% of LPS) values were determined by a serial dilution assay using 100 pg/mL of LPS and a range of peptide concentrations as mentioned above.
compound,measurement,setting,value
"CC(=O)N[C@@H](CCCCN)C(=O)N[C@@H](C)C(=O)N[C@@H](CCC(N)=O)C(=O)N[C@@H](CCCCN)C(=O)N[C@@H](CCCNC(=N)N)C(=O)N[C@@H](Cc1ccccc1)C(N)=O [Example 1, Ac-KAQKRF-NH2] (Ac-KAQKRF-NH2)","MIC, Neurospora crassa",[1],0.9 µg/mL
same,"MIC, Saprolegnia sp",[2],0.2 µg/mL
same,"MIC, Fusarium oxysporum",[3],0.9 µg/mL
same,HC50 at 1 hour,[4],> 500 µg/mL
same,"Gram negative bacteria MIC, Enterobacter hydrophila",[5],14.2 µg/mL
same,"Gram negative bacteria MIC, Salmonella tiphy",[6],11.7 µg/mL
same,"Gram negative bacteria MIC, Bacillus oleronius",[7],11.9 µg/mL
same,"Gram positive bacteria MIC, Staphylococcus aureus",[8],11.7 µg/mL
same,"Gram negative bacteria MIC, Vibrio angillarum",[9],31.2 µg/mL
same,"Gram positive bacteria MIC, Micrococcus luteus",[10],6.0 µg/mL
same,"Gram positive bacteria MIC, Bacillus megaterium",[11],13.7 µg/mL
same,"Gram positive bacteria MIC, Staphylococcus epidermidis",[12],11.4 µg/mL
same,"Gram negative bacteria MIC, Vibro ordalii",[13],10.2 µg/mL
same,"Gram negative bacteria MIC, E. Coli",[14],10.8 µg/mL
"CCCCCCCCCCCCCCCC(=O)N[C@@H](CCCCN)C(=O)N[C@@H](C)C(=O)N[C@@H](CCC(N)=O)C(=O)N[C@@H](CCCCN)C(=O)N[C@@H](CCCNC(=N)N)C(=O)N[C@@H](Cc1ccccc1)C(N)=O [Example 2, Palm-KAQKRF-NH2] (Palmitoyl-KAQKRF-NH2)","MIC, Neurospora crassa",[1],0.2 µg/mL
same,"MIC, Saprolegnia sp",[2],0.1 µg/mL
same,"MIC, Fusarium oxysporum",[3],0.5 µg/mL
same,HC50 at 1 hour,[4],> 500 µg/mL
same,"Gram negative bacteria MIC, Enterobacter hydrophila",[5],11.3 µg/mL
same,"Gram negative bacteria MIC, Salmonella tiphy",[6],6.1 µg/mL
same,"Gram negative bacteria MIC, Bacillus oleronius",[7],9.7 µg/mL
same,"Gram positive bacteria MIC, Staphylococcus aureus",[8],5.7 µg/mL
same,"Gram negative bacteria MIC, Vibrio angillarum",[9],31.0 µg/mL
same,"Gram positive bacteria MIC, Micrococcus luteus",[10],5.6 µg/mL
same,"Gram positive bacteria MIC, Bacillus megaterium",[11],12.3 µg/mL
same,"Gram positive bacteria MIC, Staphylococcus epidermidis",[12],5.6 µg/mL
same,"Gram negative bacteria MIC, Vibro ordalii",[13],7.4 µg/mL
same,"Gram negative bacteria MIC, E. Coli",[14],5.6 µg/mL
"CCCCCCCCCCCCCCCC(=O)N[C@@H](CCCCN)C(=O)N[C@@H](C)C(=O)N[C@@H](CCC(N)=O)C(=O)N[C@@H](CCCCN)C(=O)N[C@@H](CCCNC(=N)N)C(=O)N[C@@H](Cc1ccccc1)C(=O)NCCCOCCOCCOCCCN [Example 3, Palm-KAQKRF-NH—(CH2)3—(OCH2CH2)3—CH2—NH2] (Palmitoyl-KAQKRF-{NH(CH2)3(OCH2CH2)2O(CH2)3NH})","MIC, Neurospora crassa",[1],0.3 µg/mL
same,"MIC, Saprolegnia sp",[2],0.1 µg/mL
same,"MIC, Fusarium oxysporum",[3],0.4 µg/mL
same,HC50 at 1 hour,[4],> 500 µg/mL
same,"Gram negative bacteria MIC, Enterobacter hydrophila",[5],11.6 µg/mL
same,"Gram negative bacteria MIC, Salmonella tiphy",[6],5.8 µg/mL
same,"Gram negative bacteria MIC, Bacillus oleronius",[7],8.0 µg/mL
same,"Gram positive bacteria MIC, Staphylococcus aureus",[8],5.5 µg/mL
same,"Gram negative bacteria MIC, Vibrio angillarum",[9],30.0 µg/mL
same,"Gram positive bacteria MIC, Micrococcus luteus",[10],5.5 µg/mL
same,"Gram positive bacteria MIC, Bacillus megaterium",[11],12.1 µg/mL
same,"Gram positive bacteria MIC, Staphylococcus epidermidis",[12],5.8 µg/mL
same,"Gram negative bacteria MIC, Vibro ordalii",[13],8.2 µg/mL
same,"Gram negative bacteria MIC, E. Coli",[14],5.5 µg/mL
"AQKRFL [compound 6, Ac-AQKRFL-NH2]",IC50,[15],46 ± 1.1 µM
"IKISGK [compound 2, Ac-IKISGK-NH2]",IC50,[15],105 ± 1.2 µM
"IKISGKWKAQKRFLKM [compound 1, Ac-IKISGKWKAQKRFLKM-NH2]",IC50,[15],34 ± 1.3 µM
"KISGKW [compound 3, Ac-KISGKW-NH2]",IC50,[15],96 ± 1.1 µM
"KWKAQK [compound 5, Ac-KWKAQK-NH2]",IC50,[15],47 ± 1.1 µM
"SGKWKA [compound 4, Ac-SGKWKA-NH2]",IC50,[15],85 ± 1.4 µM

# From US9745346B2, “Antimicrobial peptides and their application” (INFINITEC ACTIVOS S.L., priority 2014, dated 2017)
